Measurements taken from PMC9080489, “Synthesis and biological evaluation of 2-aryl-benzimidazole derivatives of dehydroabietic acid as novel tubulin polymerization inhibitors” (RSC Advances, 2018).

Tested on: human normal hepatocyte cell line (QSG-7701)
Experiment: MTT cytotoxic assay, QSG-7701
Format: cell-based
Settings: QSG7701, 48 h exposure
Description: The in vitro antiproliferative activity of DAA derivatives (1–5, 6a–k, 7a–k) were evaluated by MTT assay against human hepatocarcinoma cell line (SMMC-7721), human breast cancer cell line (MDA-MB-231), human cervical carcinoma cell line (HeLa), mouse colon cancer cell line (CT-26) and human normal hepatocyte cell line (QSG-7701). Nocodazole was co-assayed as the positive control and DMEM culture medium containing 0.1% DMSO was used as negative control. The results of the tested compounds expressed as IC50 values (concentration required to inhibit tumor cell proliferation by 50%) were presented in Table 1.
The human hepatocarcinoma cell line (SMMC-7721), human breast cancer cell line (MDA-MB-231), human cervical carcinoma cell line (HeLa), mouse colon cancer cell line (CT-26) and human normal hepatocyte cells (QSG-7701) used in this study were all obtained from Keygene Biotech., China. These cell lines were maintained in DMEM medium supplemented with 10% heat-inactivated fetal bovine serum in a humidified atmosphere of 5% CO2 at 37 °C.
The in vitro cytotoxic activities of the benzimidazole derivatives of dehydroabietic acid were evaluated against tested cell lines via the MTT colorimetric method. Briefly, different tumor cells were grown in DMEM medium supplemented with 10% fetal bovine serum, penicillin (100 U mL^−1), and streptomycin (50 μg mL^−1). Cells were harvested at log phase of growth and seeded in 96-well plates (100 μL per well at a density of 2 × 10^5 cells mL^−1). After 24 h incubation at 37 °C and 5% CO2 to allow cell attachment, cultures were exposed to various concentrations of the isolated compounds for 48 h. Finally, MTT solution (2.5 mg mL^−1 in PBS) was added (40 μL per well). Plates were further incubated for 4 h at 37 °C, and the formazan crystals formed were dissolved by adding 150 μL per well of DMSO. Absorption at 570 nm was measured with an ELISA plate reader. The results were expressed as IC50 values with standard deviations, which was defined as the concentration at which 50% survival of cells was discerned. Nocodazole was co-assayed as positive control.

With `COC(=O)[C@]1(C)CCC[C@]2(C)c3cc(Br)c4nc(-c5ccc6[nH]ccc6c5)[nH]c4c3CCC12` (stereo partly shown) [Compound 6j, Methyl 2′-(1H-indol-5-yl)-12-bromo-13,14-imidazolyl-deisopropyl-dehydroabietate] the IC50 was 5.82 ± 0.38 µM.
